In this assay the target is human F508del-CFTR (Homo sapiens, UniProt P13569, DEL508-508). The assay is described as follows: F508del-CFTR cell surface expression (corrector activity), DiscoveRx ß-galactosidase complementation chemiluminescence assay in recombinant U2OS cell line.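 On all read-outs here: U2OS cells co-expressing ProLink-tagged F508del-CFTR and a membrane-anchored enzyme acceptor, where more surface CFTR restores β-galactosidase activity measured by chemiluminescence.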 Particulars: U2OS cell line, 16h compound incubation; for EC50: EC50, F508del-CFTR cell surface expression, geomean values; for Emax: in relation to the Emax of the corrector lumacaftor (=100%), arithmetic mean values.

Drawing on patent US20240208992A1, “MACROCYCLES AS CFTR MODULATORS” (Idorsia Pharmaceuticals Ltd, priority 2021, published 2024), this text covers EC50 and Emax for 14 compounds.

Chain of human F508del-CFTR (P13569 with tags, fused parts or gaps DEL508-508): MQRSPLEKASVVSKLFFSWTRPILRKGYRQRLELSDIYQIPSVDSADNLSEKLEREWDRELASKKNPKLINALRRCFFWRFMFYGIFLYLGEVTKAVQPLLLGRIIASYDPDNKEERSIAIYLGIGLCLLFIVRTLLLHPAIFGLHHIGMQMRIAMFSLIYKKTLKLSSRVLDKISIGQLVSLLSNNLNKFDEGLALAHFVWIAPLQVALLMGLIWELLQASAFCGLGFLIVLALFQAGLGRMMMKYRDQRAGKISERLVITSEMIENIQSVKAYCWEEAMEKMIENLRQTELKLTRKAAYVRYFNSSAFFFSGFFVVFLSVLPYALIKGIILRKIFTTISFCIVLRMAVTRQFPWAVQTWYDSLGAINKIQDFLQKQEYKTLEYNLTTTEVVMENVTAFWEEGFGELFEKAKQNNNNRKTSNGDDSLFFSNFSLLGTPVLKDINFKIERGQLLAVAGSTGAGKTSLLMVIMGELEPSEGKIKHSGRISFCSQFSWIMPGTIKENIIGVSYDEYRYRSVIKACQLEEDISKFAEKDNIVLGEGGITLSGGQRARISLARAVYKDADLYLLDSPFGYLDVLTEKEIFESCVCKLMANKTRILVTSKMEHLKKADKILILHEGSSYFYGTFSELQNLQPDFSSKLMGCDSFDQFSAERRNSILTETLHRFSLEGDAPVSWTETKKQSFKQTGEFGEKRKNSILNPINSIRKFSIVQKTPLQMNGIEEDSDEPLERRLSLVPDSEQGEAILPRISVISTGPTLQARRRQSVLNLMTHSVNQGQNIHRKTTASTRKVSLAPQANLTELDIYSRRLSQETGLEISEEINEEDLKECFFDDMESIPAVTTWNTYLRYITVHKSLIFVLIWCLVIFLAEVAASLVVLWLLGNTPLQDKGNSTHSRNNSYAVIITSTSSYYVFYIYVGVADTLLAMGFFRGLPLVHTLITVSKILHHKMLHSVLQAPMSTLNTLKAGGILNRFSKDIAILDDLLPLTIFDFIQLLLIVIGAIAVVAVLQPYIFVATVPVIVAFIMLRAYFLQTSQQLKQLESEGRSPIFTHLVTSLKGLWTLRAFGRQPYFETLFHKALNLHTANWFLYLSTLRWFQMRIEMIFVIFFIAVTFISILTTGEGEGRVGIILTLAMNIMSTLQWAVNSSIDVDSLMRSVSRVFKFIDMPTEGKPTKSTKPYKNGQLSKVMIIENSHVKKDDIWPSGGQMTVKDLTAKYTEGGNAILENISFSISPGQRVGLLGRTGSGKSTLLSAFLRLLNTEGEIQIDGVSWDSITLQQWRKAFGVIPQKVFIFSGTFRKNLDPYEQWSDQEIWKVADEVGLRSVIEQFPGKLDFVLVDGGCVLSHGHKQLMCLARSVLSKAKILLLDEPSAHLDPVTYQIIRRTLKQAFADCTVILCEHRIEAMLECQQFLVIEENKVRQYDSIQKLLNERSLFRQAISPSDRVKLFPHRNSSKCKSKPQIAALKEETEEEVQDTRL

As usually defined, the EC50 is the concentration giving half of the maximal effect. By Emax is commonly meant the maximal effect, on the per cent scale that the assay sets. For the compound `COc1cccc(CCNC(=O)[C@@H]2CC(=O)N(C)[C@@H](CC(C)C)C(=O)N3CCCC[C@@H]3C(=O)N[C@H](Cc3ccccc3)COc3cnc4ccccc4c3C(=O)N2)c1OC` [Example 81, (9S,13S,19aR,22R)-22-benzyl-N-(2,3-dimethoxyphenethyl)-13-isobutyl-12-methyl-7,11,14,20-tetraoxo-7,8,9,10,11,12,13,14,17,18,19,19a,20,21,22,23-hexadecahydro-16H-pyrido[2′,11:6,7][1]oxa[4,7,10,14]tetraazacycloheptadecino[17,16-c]quinoline-9-carboxamide], the EC50 came to 233 nM. Besides, the Emax (U2OS) amounted to 232%.

Consider `Cc1oncc1CCNC(=O)[C@@H]1CC(=O)N(C)[C@@H](CC(C)C)C(=O)N2CCCC[C@@H]2C(=O)N[C@H](Cc2ccccc2)COc2cnc3ccccc3c2C(=O)N1` [Example 82, (9S,13S,19aR,22R)-22-benzyl-13-isobutyl-12-methyl-N-(2-(5-methylisoxazol-4-yl)ethyl)-7,11,14,20-tetraoxo-7,8,9,10,11,12,13,14,17,18,19,19a,20,21,22,23-hexadecahydro-16H-pyrido[2′,1′:6,7][1]oxa[4,7,10,14]tetraazacycloheptadecino[17,16-c]quinoline-9-carboxamide], for which the EC50 was 598 nM. For the same compound, for the setting “U2OS”, the Emax amounted to 246%.

Take `CC(C)C[C@H]1C(=O)N2CCCC[C@@H]2C(=O)N[C@H](Cc2ccccc2)COc2cnc3ccccc3c2C(=O)N[C@H](C(=O)NCCc2cnn(C)c2)CC(=O)N1C` [Example 83, (9S,13S,19aR,22R)-22-benzyl-13-isobutyl-12-methyl-N-(2-(1-methyl-1H-pyrazol-4-yl)ethyl)-7,11,14,20-tetraoxo-7,8,9,10,11,12,13,14,17,18,19,19a,20,21,22,23-hexadecahydro-16H-pyrido[2′,11:6,7][1]oxa[4,7,10,14]tetraazacycloheptadecino[17,16-c]quinoline-9-carboxamide]: the EC50 was 731 nM. Also, the Emax (U2OS) was found to be 309%.

As for `COc1ccc(CCNC(=O)[C@@H]2CC(=O)N(C)[C@@H](CC(C)C)C(=O)N3CCCC[C@@H]3C(=O)N[C@H](Cc3ccccc3)COc3cnc4ccccc4c3C(=O)N2)cc1` [Example 84, (9S,13S,19aR,22R)-22-benzyl-13-isobutyl-N-(4-methoxyphenethyl)-12-methyl-7,11,14,20-tetraoxo-7,8,9,10,11,12,13,14,17,18,19,19a,20,21,22,23-hexadecahydro-16H-pyrido[2′,1′:6,7][1]oxa[4,7,10,14]tetraazacycloheptadecino[17,16-c]quinoline-9-carboxamide], the EC50 turned out to be 274 nM. For the same compound, for the setting “U2OS”, the Emax was found to be 299%.

Regarding `CC(C)C[C@H]1C(=O)N2CCCC[C@@H]2C(=O)N[C@H](Cc2ccccc2)COc2cnc3ccccc3c2C(=O)N[C@H](C(=O)NCCc2noc(C(C)(C)C)n2)CC(=O)N1C` [Example 85, (9S,13S,19aR,22R)-22-benzyl-N-(2-(5-(tert-butyl)-1,2,4-oxadiazol-3-yl)ethyl)-13-isobutyl-12-methyl-7,11,14,20-tetraoxo-7,8,9,10,11,12,13,14,17,18,19,19a,20,21,22,23-hexadecahydro-16H-pyrido[2′,1′:6,7][1]oxa[4,7,10,14]tetraazacycloheptadecino[17,16-c]quinoline-9-carboxamide], the EC50 was 260 nM. For the setting “U2OS”, the Emax was 244%.

For `Cc1cc(C)cc(-c2noc(CCNC(=O)[C@@H]3CC(=O)N(C)[C@@H](CC(C)C)C(=O)N4CCCC[C@@H]4C(=O)N[C@H](Cc4ccccc4)COc4cnc5ccccc5c4C(=O)N3)n2)c1` [Example 86, (9S,13S,19aR,22R)-22-benzyl-N-(2-(3-(3,5-dimethylphenyl)-1,2,4-oxadiazol-5-yl)ethyl)-13-isobutyl-12-methyl-7,11,14,20-tetraoxo-7,8,9,10,11,12,13,14,17,18,19,19a,20,21,22,23-hexadecahydro-16H-pyrido[2′,1′:6,7][1]oxa[4,7,10,14]tetraazacycloheptadecino[17,16-c]quinoline-9-carboxamide], the EC50 came to 314 nM. Further, the Emax (U2OS) was found to be 157%.

With `CC(C)C[C@H]1C(=O)N2CCCC[C@@H]2C(=O)N[C@H](Cc2ccccc2)COc2cnc3ccccc3c2C(=O)N[C@H](C(=O)NCCc2nc(-c3ccccc3OC(F)(F)F)no2)CC(=O)N1C` [Example 87, (9S,13S,19aR,22R)-22-benzyl-13-isobutyl-12-methyl-7,11,14,20-tetraoxo-N-(2-(3-(2-(trifluoromethoxy)phenyl)-1,2,4-oxadiazol-5-yl)ethyl)-7,8,9,10,11,12,13,14,17,18,19,19a,20,21,22,23-hexadecahydro-16H-pyrido[2′,1′:6,7][1]oxa[4,7,10,14]tetraazacycloheptadecino[17,16-c]quinoline-9-carboxamide], the EC50 was 162 nM. Further, where the note is “U2OS”, the Emax came to 190%.

`CC(C)C[C@H]1C(=O)N2CCCC[C@@H]2C(=O)N[C@H](Cc2ccccc2)COc2cnc3ccccc3c2C(=O)N[C@H](C(=O)NCCc2nnc(-c3ccccc3OC(F)(F)F)[nH]2)CC(=O)N1C` [Example 88, (9S,13S,19aR,22R)-22-benzyl-13-isobutyl-12-methyl-7,11,14,20-tetraoxo-N-(2-(5-(2-(trifluoromethoxy)phenyl)-4H-1,2,4-triazol-3-yl)ethyl)-7,8,9,10,11,12,13,14,17,18,19,19a,20,21,22,23-hexadecahydro-16H-pyrido[2′,1′:6,7][1]oxa[4,7,10,14]tetraazacycloheptadecino[17,16-c]quinoline-9-carboxamide]: the EC50 came out at 230 nM. Moreover, the maximal effect (Emax) (U2OS) came out at 112%.

As for `CC(C)C[C@H]1C(=O)N2CCCC[C@@H]2C(=O)N[C@H](Cc2ccccc2)COc2cnc3ccccc3c2C(=O)N[C@H](C(=O)NCCc2cc(C(C)(C)C)on2)CC(=O)N1C` [Example 89, (9S,13S,19aR,22R)-22-benzyl-N-(2-(5-(tert-butyl)isoxazol-3-yl)ethyl)-13-isobutyl-12-methyl-7,11,14,20-tetraoxo-7,8,9,10,11,12,13,14,17,18,19,19a,20,21,22,23-hexadecahydro-16H-pyrido[2′,1′:6,7][1]oxa[4,7,10,14]tetraazacycloheptadecino[17,16-c]quinoline-9-carboxamide], the concentration for a half-maximal effect (EC50) stood at 132 nM and the Emax is recorded as 262%.

For `CC(C)C[C@H]1C(=O)N2CCCC[C@@H]2C(=O)N[C@H](Cc2ccccc2)COc2cnc3ccccc3c2C(=O)N[C@H](C(=O)NCCc2cc(C(C)(C)C)on2)CC(=O)N1C` [Example 90, (9S,13S,19aS,22R)-22-benzyl-N-(2-(5-(tert-butyl)isoxazol-3-yl)ethyl)-13-isobutyl-12-methyl-7,11,14,20-tetraoxo-7,8,9,10,11,12,13,14,17,18,19,19a,20,21,22,23-hexadecahydro-16H-pyrido[2′,1′:6,7][1]oxa[4,7,10,14]tetraazacycloheptadecino[17,16-c]quinoline-9-carboxamide], the EC50 turned out to be 364 nM and the Emax is on record as 129%.

Regarding `COc1cc(CCNC(=O)[C@@H]2CC(=O)N(C)[C@@H](CC(C)C)C(=O)N3CCCC[C@@H]3C(=O)N[C@H](Cc3ccccc3)COc3cnc4ccccc4c3C(=O)N2)ccc1F` [Example 91, (9S,13S,19aR,22R)-22-benzyl-N-(4-fluoro-3-methoxyphenethyl)-13-isobutyl-12-methyl-7,11,14,20-tetraoxo-7,8,9,10,11,12,13,14,17,18,19,19a,20,21,22,23-hexadecahydro-16H-pyrido[2′,1′:6,7][1]oxa[4,7,10,14]tetraazacycloheptadecino[17,16-c]quinoline-9-carboxamide], the EC50 was determined as 466 nM. The Emax (U2OS) came to 210%.

In the case of `Cc1ccc(F)c(CCNC(=O)[C@@H]2CC(=O)N(C)[C@@H](CC(C)C)C(=O)N3CCCC[C@@H]3C(=O)N[C@H](Cc3ccccc3)COc3cnc4ccccc4c3C(=O)N2)c1` [Example 92, (9S,13S,19aR,22R)-22-benzyl-N-(2-fluoro-5-methylphenethyl)-13-isobutyl-12-methyl-7,11,14,20-tetraoxo-7,8,9,10,11,12,13,14,17,18,19,19a,20,21,22,23-hexadecahydro-16H-pyrido[2′,1′:6,7][1]oxa[4,7,10,14]tetraazacycloheptadecino[17,16-c]quinoline-9-carboxamide], the EC50 amounted to 289 nM. Further, the Emax (U2OS) was 256%.

Consider `COc1cc(CCNC(=O)[C@@H]2CC(=O)N(C)[C@@H](CC(C)C)C(=O)N3CCCC[C@@H]3C(=O)N[C@H](Cc3ccccc3)COc3cnc4ccccc4c3C(=O)N2)ccc1-n1nccn1` [Example 93, (9S,13S,19aR,22R)-22-benzyl-13-isobutyl-N-(3-methoxy-4-(2H-1,2,3-triazol-2-yl)phenethyl)-12-methyl-7,11,14,20-tetraoxo-7,8,9,10,11,12,13,14,17,18,19,19a,20,21,22,23-hexadecahydro-16H-pyrido[2′,1′:6,7][1]oxa[4,7,10,14]tetraazacycloheptadecino[17,16-c]quinoline-9-carboxamide], for which the EC50 came out at 777 nM. For the same compound, the Emax (U2OS) stood at 189%.

For `CC(C)C[C@H]1C(=O)N2CCCC[C@@H]2C(=O)N[C@H](Cc2ccccc2)COc2cnc3ccccc3c2C(=O)N[C@H](C(=O)NCCc2ccc(F)cc2F)CC(=O)N1C` [Example 94, (9S,13S,19aR,22R)-22-benzyl-N-(2,4-difluorophenethyl)-13-isobutyl-12-methyl-7,11,14,20-tetraoxo-7,8,9,10,11,12,13,14,17,18,19,19a,20,21,22,23-hexadecahydro-16H-pyrido[2′,1′:6,7][1]oxa[4,7,10,14]tetraazacycloheptadecino[17,16-c]quinoline-9-carboxamide], the EC50 was found to be 257 nM. Where the note is “U2OS”, the Emax came out at 201%.
